Read-outs that look alike come from different tables or passages of the source.
What was measured:
GroEL/ES = target: T1, GroEL/ES (Escherichia coli, UniProt P0A6F5); experiment: GroEL/ES-mediated dMDH refolding assay; assay type: biochemical, E. coli
T1 construct: made in house; host or cells: GroEL in E. coli DH5a; GroES in E. coli BL21 (DE3)
Outline: (§1)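 Pre-formed chaperonin–denatured pig heart MDH complexes (50 nM GroEL or HSP60, 60 nM GroES or HSP10, 12 nM dMDH) refolded with 1 mM ATP and compound (100 μM–46 nM) at 37 °C, ~20-40 min for GroEL/ES or ~40-60 min for HSP60/10. After EDTA quench, MDH activity was read as NADH loss at A340. IC50 came from variable-slope regression.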

HSP60/10 = target: T2, HSP60/10 (Homo sapiens, UniProt P10809); experiment: HSP60/10-mediated dMDH refolding assay; assay type: biochemical; settings: 37° C., 1 mM ATP, read-out: Biochemical Assay IC50 HSP60/10-dMDH Refolding
T2 construct: octa-Histidine (His8) tag, TEV-cleavable (N, cleaved yes); made in house; host or cells: HSP60 in Rosetta 2 (DE3) E. coli; HSP10 in Rosetta 2 (DE3) pLysS
T2 sequence (P10809 27-573): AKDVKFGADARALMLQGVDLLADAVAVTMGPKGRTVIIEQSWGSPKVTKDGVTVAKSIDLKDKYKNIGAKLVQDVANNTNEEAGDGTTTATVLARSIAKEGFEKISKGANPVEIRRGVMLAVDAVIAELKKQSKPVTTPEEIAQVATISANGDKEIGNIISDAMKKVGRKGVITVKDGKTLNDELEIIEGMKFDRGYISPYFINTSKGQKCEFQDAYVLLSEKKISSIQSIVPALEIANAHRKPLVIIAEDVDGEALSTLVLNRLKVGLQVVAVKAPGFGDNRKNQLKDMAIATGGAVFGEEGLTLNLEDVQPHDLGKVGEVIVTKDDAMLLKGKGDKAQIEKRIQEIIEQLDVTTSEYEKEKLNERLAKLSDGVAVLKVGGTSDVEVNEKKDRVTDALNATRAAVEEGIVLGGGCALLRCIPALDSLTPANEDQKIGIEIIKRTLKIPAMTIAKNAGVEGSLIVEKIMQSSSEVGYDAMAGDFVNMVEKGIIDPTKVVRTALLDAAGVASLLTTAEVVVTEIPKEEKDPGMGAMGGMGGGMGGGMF
Outline: as §1

[1] = HEK 293 kidney cell viability / cytotoxicity assay (Alamar Blue); assay type: cell-based; settings: human, 48 h incubation, Alamar Blue, read-out: HEK 293 Kidney Cell Viability CC50

T1 sequence (P0A6F5 2-548): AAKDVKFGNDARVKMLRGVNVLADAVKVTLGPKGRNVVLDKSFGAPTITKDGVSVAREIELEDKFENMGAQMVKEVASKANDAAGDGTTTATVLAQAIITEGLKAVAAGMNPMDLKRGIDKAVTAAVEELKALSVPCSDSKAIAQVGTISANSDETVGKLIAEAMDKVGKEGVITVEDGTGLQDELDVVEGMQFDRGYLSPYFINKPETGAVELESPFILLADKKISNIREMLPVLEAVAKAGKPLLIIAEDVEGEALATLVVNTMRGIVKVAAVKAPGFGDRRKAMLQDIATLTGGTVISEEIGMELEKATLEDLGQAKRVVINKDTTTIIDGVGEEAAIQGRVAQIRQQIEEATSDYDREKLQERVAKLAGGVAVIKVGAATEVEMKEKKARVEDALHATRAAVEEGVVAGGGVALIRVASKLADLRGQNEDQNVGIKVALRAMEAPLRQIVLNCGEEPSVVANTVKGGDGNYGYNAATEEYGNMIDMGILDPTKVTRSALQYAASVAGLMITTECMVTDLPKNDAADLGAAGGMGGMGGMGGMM

| Compound | IC50 (GroEL/ES) | IC50 (HSP60/10; Table 2) | CC50 at 48 h ([1]; Table 2) | CC50 at 48 h ([1]; HEK 293 kidney cells, Table 2) | IC50 (HSP60/10; Table 3) | CC50 at 48 h ([1]; HEK 293 kidney cells, Table 3) | IC50 (HSP60/10; Table 1) | CC50 at 48 h ([1]; HEK 293 kidney cells, Table 1) |
| --- | --- | --- | --- | --- | --- | --- | --- | --- |
| Cc1cc(C(C#N)c2ccc(Cl)cc2)c(Cl)cc1NC(=O)c1ccc(Cl)cc1O (stereo not drawn) [Compound 56, 4-chloro-N-(5-chloro-4-((4-chlorophenyl)(cyano)methyl)-2-methylphenyl)-2-hydroxybenzamide] | 57 µM | 17 µM | 16 µM |  |  |  |  |  |
| CC(=O)Nc1cc(Cl)c(C(C#N)c2ccc(Cl)cc2)cc1C (stereo not drawn) [Compound 83, N-(5-chloro-4-((4-chlorophenyl)(cyano)methyl)-2-methylphenyl)acetamide] | > 100 µM | 69 µM |  | 83 µM |  |  |  |  |
| Cc1cc(C(C#N)c2ccc(Cl)cc2)c(Cl)cc1NC(=O)c1ccc(Cl)cc1 (stereo not drawn) [Compound 78, 4-chloro-N-(5-chloro-4-((4-chlorophenyl)(cyano)methyl)-2-methylphenyl)benzamide] | 63 µM | > 100 µM |  | 50 µM |  |  |  |  |
| Cc1cc(C(C#N)c2ccc(Cl)cc2)c(Cl)cc1NC(=O)c1cccc(Cl)c1O (stereo not drawn) [Compound 54, 3-chloro-N-(5-chloro-4-((4-chlorophenyl)(cyano)methyl)-2-methylphenyl)-2-hydroxybenzamide] | 14 µM | 6.4 µM | 88 µM |  |  |  |  |  |
| Cc1cc(C(C#N)c2ccc(Cl)cc2)c(Cl)cc1NC(=O)c1cccc(N)c1 (stereo not drawn) [Compound 71, 3-amino-N-(5-chloro-4-((4-chlorophenyl)(cyano)methyl)-2-methylphenyl)benzamide] | 51 µM | > 100 µM |  | 35 µM |  |  |  |  |
| Cc1cc(C(C#N)c2ccc(Cl)cc2)c(Cl)cc1NC(=O)c1cc(Br)cc(Br)c1O (stereo not drawn) [Compound 46, 3,5-dibromo-N-(5-chloro-4-((4-chlorophenyl)(cyano)methyl)-2-methylphenyl)-2-hydroxybenzamide] | 1.9 µM | 2.4 µM | 58 µM |  |  |  |  |  |
| Cc1cc(C(C#N)c2ccc(Cl)cc2)c(Cl)cc1NC(=O)c1cc(Br)ccc1O (stereo not drawn) [Compound 50, 5-bromo-N-(5-chloro-4-((4-chlorophenyl)(cyano)methyl)-2-methylphenyl)-2-hydroxybenzamide] | 23 µM | 20 µM | 3.4 µM |  |  |  |  |  |
| CC(=O)Nc1ccc(NC(=O)c2cc(Cl)ccc2O)cc1 [Compound 105, N-(4-acetamidophenyl)-5-chloro-2-hydroxybenzamide] | > 100 µM |  |  |  | > 100 µM | 69 µM |  |  |
| Cc1cc(C(C#N)c2ccc(Cl)cc2)c(Cl)cc1NC(=O)c1cccc(Br)c1O (stereo not drawn) [Compound 48, 3-bromo-N-(5-chloro-4-((4-chlorophenyl)(cyano)methyl)-2-methylphenyl)-2-hydroxybenzamide] | 12 µM | 7.7 µM | 43 µM |  |  |  |  |  |
| Cc1cc(C(C#N)c2ccc(Cl)cc2)c(Cl)cc1NC(=O)c1ccccc1 (stereo not drawn) [Compound 82, N-(5-chloro-4-((4-chlorophenyl)(cyano)methyl)-2-methylphenyl)benzamide] | 74 µM | > 100 µM | 47 µM |  |  |  |  |  |
| COc1ccc(Cl)cc1C(=O)Nc1ccc(C(C#N)c2ccccc2)cc1 (stereo not drawn) [Compound 84, 5-chloro-N-(4-(cyano(phenyl)methyl)phenyl)-2-methoxybenzamide] | 94 µM |  |  |  | > 100 µM | > 100 µM |  |  |
| COc1c(Cl)cc(Cl)cc1C(=O)Nc1cc(Cl)c(C(C#N)c2ccc(Cl)cc2)cc1C (stereo not drawn) [Compound 51, 3,5-dichloro-N-(5-chloro-4-((4-chlorophenyl)(cyano)methyl)-2-methylphenyl)-2-methoxybenzamide] | 38 µM | 86 µM | 83 µM |  |  |  |  |  |
| CC(=O)Oc1ccccc1C(=O)Nc1ncc([N+](=O)[O-])s1 [Nitazoxanide, reference compound] | > 100 µM |  |  |  |  |  | > 100 µM | 30 µM |
